Experimental data from US9809623B2, “α4β7 peptide monomer and dimer antagonists” (Protagonist Therapeutics, Inc., priority 2014, dated 2017).
Numbered stars: 1 amine (or outer) side, 2 acyl side, 3 side chain; on linkers, the order of the positions; unused ones are H or OH. Bridge positions count the residues as written; N and C are the ends. Square brackets hold non-standard residues; d marks the D form. Peptide text beside a SMILES is read from it. I, II: the chains in the order shown. Bip = N[C@@H](Cc1ccc(-c2ccccc2)cc1)C(=O)O; Phe(4-CN) = N#Cc1ccc(C[C@H](N)C(=O)O)cc1; 2Nal = N[C@@H](Cc1ccc2ccccc2c1)C(=O)O; Diglycolyl = O=C(COCC(=O)[*:2])[*:1]; NMeR = CN[C@@H](CCCNC(=N)N)C(=O)O; β3hE = N[C@@H](CCC(=O)O)CC(=O)O; Cha = N[C@@H](CC1CCCCC1)C(=O)O; NMeK = CN[C@@H](CCCCN)C(=O)O; Pen = CC(C)(S)[C@H](N)C(=O)O

Molecular target: α4β7 (Homo sapiens, UniProt P13612+P26010)
Sequence (P13612 34-1032): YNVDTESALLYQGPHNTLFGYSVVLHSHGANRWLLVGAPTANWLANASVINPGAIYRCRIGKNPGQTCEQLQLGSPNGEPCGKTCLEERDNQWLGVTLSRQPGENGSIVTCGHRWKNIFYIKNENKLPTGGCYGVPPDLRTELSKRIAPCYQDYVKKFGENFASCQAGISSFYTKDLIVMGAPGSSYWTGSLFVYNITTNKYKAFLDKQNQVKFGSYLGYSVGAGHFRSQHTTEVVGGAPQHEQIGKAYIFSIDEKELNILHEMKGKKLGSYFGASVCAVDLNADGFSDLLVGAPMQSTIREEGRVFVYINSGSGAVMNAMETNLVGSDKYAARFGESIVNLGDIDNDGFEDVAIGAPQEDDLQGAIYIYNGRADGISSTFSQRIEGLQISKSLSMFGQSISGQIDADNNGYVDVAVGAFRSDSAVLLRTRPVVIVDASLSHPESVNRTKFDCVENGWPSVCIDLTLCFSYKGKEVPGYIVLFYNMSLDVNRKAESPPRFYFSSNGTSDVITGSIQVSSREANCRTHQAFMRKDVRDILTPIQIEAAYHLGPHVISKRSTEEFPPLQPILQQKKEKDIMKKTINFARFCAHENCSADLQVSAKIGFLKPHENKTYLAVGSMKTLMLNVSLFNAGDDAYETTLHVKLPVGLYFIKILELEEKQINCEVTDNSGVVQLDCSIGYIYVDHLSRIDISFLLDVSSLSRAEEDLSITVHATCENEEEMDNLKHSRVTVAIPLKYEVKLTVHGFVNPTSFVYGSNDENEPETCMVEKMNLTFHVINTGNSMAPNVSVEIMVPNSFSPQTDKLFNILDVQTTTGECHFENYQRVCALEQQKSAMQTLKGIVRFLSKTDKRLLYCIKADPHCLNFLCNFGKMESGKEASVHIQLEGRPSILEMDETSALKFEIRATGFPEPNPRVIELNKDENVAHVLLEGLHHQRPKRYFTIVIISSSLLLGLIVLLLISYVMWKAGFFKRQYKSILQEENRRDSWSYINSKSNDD
Sequence (P26010 20-798): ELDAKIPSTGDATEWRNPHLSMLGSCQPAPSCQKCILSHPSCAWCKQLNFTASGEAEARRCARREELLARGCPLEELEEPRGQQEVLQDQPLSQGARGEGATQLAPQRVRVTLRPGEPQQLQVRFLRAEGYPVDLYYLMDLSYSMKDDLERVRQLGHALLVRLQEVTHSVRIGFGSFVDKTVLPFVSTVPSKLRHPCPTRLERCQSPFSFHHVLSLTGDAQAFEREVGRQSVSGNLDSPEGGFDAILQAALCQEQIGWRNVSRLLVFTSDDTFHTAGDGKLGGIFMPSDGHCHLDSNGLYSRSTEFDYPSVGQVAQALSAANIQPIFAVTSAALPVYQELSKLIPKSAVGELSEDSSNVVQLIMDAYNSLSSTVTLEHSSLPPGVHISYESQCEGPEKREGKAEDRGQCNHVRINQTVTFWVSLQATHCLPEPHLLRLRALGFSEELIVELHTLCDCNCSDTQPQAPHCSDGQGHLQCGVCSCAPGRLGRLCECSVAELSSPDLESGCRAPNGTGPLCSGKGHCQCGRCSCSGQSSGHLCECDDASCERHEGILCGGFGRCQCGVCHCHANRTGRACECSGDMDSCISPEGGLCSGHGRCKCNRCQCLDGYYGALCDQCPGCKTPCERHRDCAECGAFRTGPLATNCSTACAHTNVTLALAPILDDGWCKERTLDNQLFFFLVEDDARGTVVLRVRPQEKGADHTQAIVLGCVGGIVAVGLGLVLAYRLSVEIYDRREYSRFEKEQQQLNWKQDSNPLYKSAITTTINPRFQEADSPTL
Assay: α4β7-MAdCAM Cell Adhesion Assay (RPMI 8866 human cells)
Assay type: cell-based
Design: host or cells: RPMI 8866 human B lymphoblastoid cells
Conditions: Table 3-B, Potency (α4β7); range classes; read-out: α4β7 cell (Hu) IC50
Outline: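 Adhesion read-out: MTT absorbance at 570 nm minus no-cell wells, after three washes. Plates coated with rh MAdCAM-1/Fc received peptide dilutions plus 200,000 RPMI 8866 cells in Mn2+ (1 mM)-supplemented DMEM, 0.1% BSA, HEPES pH 7, incubated 30-45 min, 37 °C.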

| SMILES | IC50 [nM] |
| --- | --- |
| CC(=O)N[C@@H]1C(=O)N(C)[C@@H](CCCNC(=N)N)C(=O)N[C@@H](CO)C(=O)N[C@@H](CC(=O)O)C(=O)N[C@@H]([C@@H](C)O)C(=O)N[C@@H](CC(C)C)C(=O)N[C@H](C(=O)N[C@@H](Cc2c[nH]cn2)C(=O)N[C@H](CCC(=O)O)C(=O)N[C@H](CCCCNC(=O)COCC(=O)NCCCC[C@@H](NC(=O)[C@@H](CCC(=O)O)NC(=O)[C@H](Cc2c[nH]cn2)NC(=O)[C@H]2NC(=O)[C@H](CC(C)C)NC(=O)[C@H]([C@@H](C)O)NC(=O)[C@H](CC(=O)O)NC(=O)[C@H](CO)NC(=O)[C@H](CCCNC(=N)N)N(C)C(=O)[C@@H](NC(C)=O)C(C)(C)SSC2(C)C)C(N)=O)C(N)=O)C(C)(C)SSC1(C)C [compound 124] (I: Ac-[Pen][NMeR]SDTL[Pen]H[dE][dK]-NH2 / II: Ac-[Pen][NMeR]SDTL[Pen]H[dE][dK]-NH2; disulfide I:1-I:7, II:1-II:7; linker I:10-II:10 via Diglycolyl) | 100 to 500 |
| CC(=O)N[C@@H]1C(=O)N(C)[C@@H](CCCNC(=N)N)C(=O)N[C@@H](CO)C(=O)N[C@@H](CC(=O)O)C(=O)N[C@@H]([C@@H](C)O)C(=O)N[C@@H](CC(C)C)C(=O)N[C@H](C(=O)N[C@@H](Cc2ccc(-c3ccccc3)cc2)C(=O)N[C@@H](CCC(=O)O)CC(=O)N[C@H](CCCCNC(=O)COCC(=O)NCCCC[C@@H](NC(=O)C[C@H](CCC(=O)O)NC(=O)[C@H](Cc2ccc(-c3ccccc3)cc2)NC(=O)[C@H]2NC(=O)[C@H](CC(C)C)NC(=O)[C@H]([C@@H](C)O)NC(=O)[C@H](CC(=O)O)NC(=O)[C@H](CO)NC(=O)[C@H](CCCNC(=N)N)N(C)C(=O)[C@@H](NC(C)=O)C(C)(C)SSC2(C)C)C(N)=O)C(N)=O)C(C)(C)SSC1(C)C [compound 135] (I: Ac-[Pen][NMeR]SDTL[Pen][Bip][β3hE][dK]-NH2 / II: Ac-[Pen][NMeR]SDTL[Pen][Bip][β3hE][dK]-NH2; disulfide I:1-I:7, II:1-II:7; linker I:10-II:10 via Diglycolyl) | < 10 |
| CC(=O)N[C@@H]1C(=O)N(C)[C@@H](CCCNC(=N)N)C(=O)N[C@@H](CO)C(=O)N[C@@H](CC(=O)O)C(=O)N[C@@H]([C@@H](C)O)C(=O)N[C@@H](CC(C)C)C(=O)N[C@H](C(=O)N[C@@H](Cc2ccc(-c3ccccc3)cc2)C(=O)N[C@@H](CCC(=O)O)C(=O)N(C)[C@@H](CCCCNC(=O)COCC(=O)NCCCC[C@@H](C(N)=O)N(C)C(=O)[C@H](CCC(=O)O)NC(=O)[C@H](Cc2ccc(-c3ccccc3)cc2)NC(=O)[C@H]2NC(=O)[C@H](CC(C)C)NC(=O)[C@H]([C@@H](C)O)NC(=O)[C@H](CC(=O)O)NC(=O)[C@H](CO)NC(=O)[C@H](CCCNC(=N)N)N(C)C(=O)[C@@H](NC(C)=O)C(C)(C)SSC2(C)C)C(N)=O)C(C)(C)SSC1(C)C [compound 136] (I: Ac-[Pen][NMeR]SDTL[Pen][Bip]E[NMeK]-NH2 / II: Ac-[Pen][NMeR]SDTL[Pen][Bip]E[NMeK]-NH2; disulfide I:1-I:7, II:1-II:7; linker I:10-II:10 via Diglycolyl) | < 10 |
| CC(=O)N[C@@H]1C(=O)N(C)[C@@H](CCCNC(=N)N)C(=O)N[C@@H](CO)C(=O)N[C@@H](CC(=O)O)C(=O)N[C@@H]([C@@H](C)O)C(=O)N[C@@H](CC(C)C)C(=O)N[C@H](C(=O)N[C@@H](Cc2ccc(C#N)cc2)C(=O)N[C@@H](CCC(=O)O)CC(=O)N[C@H](CCCCNC(=O)COCC(=O)NCCCC[C@@H](NC(=O)C[C@H](CCC(=O)O)NC(=O)[C@H](Cc2ccc(C#N)cc2)NC(=O)[C@H]2NC(=O)[C@H](CC(C)C)NC(=O)[C@H]([C@@H](C)O)NC(=O)[C@H](CC(=O)O)NC(=O)[C@H](CO)NC(=O)[C@H](CCCNC(=N)N)N(C)C(=O)[C@@H](NC(C)=O)C(C)(C)SSC2(C)C)C(N)=O)C(N)=O)C(C)(C)SSC1(C)C [compound 139] (I: Ac-[Pen][NMeR]SDTL[Pen][Phe(4-CN)][β3hE][dK]-NH2 / II: Ac-[Pen][NMeR]SDTL[Pen][Phe(4-CN)][β3hE][dK]-NH2; disulfide I:1-I:7, II:1-II:7; linker I:10-II:10 via Diglycolyl) | < 10 |
| CC(=O)N[C@@H]1C(=O)N(C)[C@@H](CCCNC(=N)N)C(=O)N[C@@H](CO)C(=O)N[C@@H](CC(=O)O)C(=O)N[C@@H]([C@@H](C)O)C(=O)N[C@@H](CC(C)C)C(=O)N[C@H](C(=O)N[C@@H](Cc2ccc3ccccc3c2)C(=O)N[C@@H](C(=O)N[C@H](CCCCNC(=O)COCC(=O)NCCCC[C@@H](NC(=O)[C@H](NC(=O)[C@H](Cc2ccc3ccccc3c2)NC(=O)[C@H]2NC(=O)[C@H](CC(C)C)NC(=O)[C@H]([C@@H](C)O)NC(=O)[C@H](CC(=O)O)NC(=O)[C@H](CO)NC(=O)[C@H](CCCNC(=N)N)N(C)C(=O)[C@@H](NC(C)=O)C(C)(C)SSC2(C)C)[C@H](C)O)C(N)=O)C(N)=O)[C@H](C)O)C(C)(C)SSC1(C)C [compound 140] (I: Ac-[Pen][NMeR]SDTL[Pen][2Nal][dT][dK]-NH2 / II: Ac-[Pen][NMeR]SDTL[Pen][2Nal][dT][dK]-NH2; disulfide I:1-I:7, II:1-II:7; linker I:10-II:10 via Diglycolyl) | 10 to 25 |
| CC(=O)N[C@@H]1C(=O)N(C)[C@@H](CCCNC(=N)N)C(=O)N[C@@H](CO)C(=O)N[C@@H](CC(=O)O)C(=O)N[C@@H](C(C)C)C(=O)N[C@@H](CC(C)C)C(=O)N[C@H](C(=O)N[C@@H](Cc2ccc3ccccc3c2)C(=O)N[C@H](CCC(=O)O)C(N)=O)C(C)(C)SSC1(C)C [compound 156] (Ac-[Pen][NMeR]SDVL[Pen][2Nal][dE]-NH2; disulfide 1-7) | 100 to 500 |
| CC(=O)N[C@@H]1C(=O)N(C)[C@@H](CCCNC(=N)N)C(=O)N[C@@H](CO)C(=O)N[C@@H](CC(=O)O)C(=O)N[C@@H](Cc2ccccc2)C(=O)N[C@@H](CC(C)C)C(=O)N[C@H](C(=O)N[C@@H](Cc2ccc3ccccc3c2)C(=O)N[C@H](CCC(=O)O)C(N)=O)C(C)(C)SSC1(C)C [compound 157] (Ac-[Pen][NMeR]SDFL[Pen][2Nal][dE]-NH2; disulfide 1-7) | 1000 to 10000 |
| CC(=O)N[C@@H]1C(=O)N(C)[C@@H](CCCNC(=N)N)C(=O)N[C@@H](CO)C(=O)N[C@@H](CC(=O)O)C(=O)N[C@@H](CC2CCCCC2)C(=O)N[C@@H](CC(C)C)C(=O)N[C@H](C(=O)N[C@@H](Cc2ccc3ccccc3c2)C(=O)N[C@H](CCC(=O)O)C(N)=O)C(C)(C)SSC1(C)C [compound 158] (Ac-[Pen][NMeR]SD[Cha]L[Pen][2Nal][dE]-NH2; disulfide 1-7) | 1000 to 10000 |
| CC(=O)N[C@@H]1C(=O)N(C)[C@@H](CCCNC(=N)N)C(=O)N[C@@H](CO)C(=O)N[C@@H](CC(=O)O)C(=O)N[C@@H](CC(C)C)C(=O)N[C@@H](CC(C)C)C(=O)N[C@H](C(=O)N[C@@H](Cc2ccc3ccccc3c2)C(=O)N[C@H](CCC(=O)O)C(N)=O)C(C)(C)SSC1(C)C [compound 159] (Ac-[Pen][NMeR]SDLL[Pen][2Nal][dE]-NH2; disulfide 1-7) | 1000 to 10000 |
| CC[C@H](C)[C@@H]1NC(=O)[C@H](CC(=O)O)NC(=O)[C@H](CO)NC(=O)[C@H](CCCNC(=N)N)N(C)C(=O)[C@@H](NC(C)=O)C(C)(C)SSC(C)(C)[C@@H](C(=O)N[C@@H](Cc2ccc3ccccc3c2)C(=O)N[C@H](CCC(=O)O)C(N)=O)NC(=O)[C@H](CC(C)C)NC1=O [compound 160] (Ac-[Pen][NMeR]SDIL[Pen][2Nal][dE]-NH2; disulfide 1-7) | 1000 to 10000 |
